# ChEMBL document CHEMBL1151508, “Preparation and activities of 4-epi and 4-deoxy-4-amino analogs derived from 9-deoxo-8a-aza-8a-homoerythromycin A” (1994)
# How the values were obtained:
# Format in all cases: functional
# Escherichia coli = assay: In vitro minimum inhibitory concentration against Escherichia coli MB2884.
# Klebsiella pneumoniae = assay: In vitro minimum inhibitory concentration against Klebsiella pneumoniae MB4005.
# Haemophilus influenzae = assay: In vitro minimum inhibitory concentration against Haemophilus influenzae MB5363.
# Enterococcus faecalis = assay: In vitro minimum inhibitory concentration against Enterococcus faecalis MB5407.
# Streptococcus pneumoniae = assay: In vitro minimum inhibitory concentration against Streptococcus pneumoniae CL2883.
# Staphylococcus aureus = assay: In vitro minimum inhibitory concentration against Staphylococcus aureus MB2865.
SMILES,MIC (Escherichia coli),MIC (Klebsiella pneumoniae),MIC (Haemophilus influenzae),MIC (Enterococcus faecalis),MIC (Streptococcus pneumoniae),MIC (Staphylococcus aureus)
CC[C@H]1OC(=O)[C@H](C)[C@@H](O[C@H]2C[C@@](C)(OC)[C@H](N)[C@H](C)O2)[C@H](C)[C@@H](O[C@@H]2O[C@H](C)C[C@H](N(C)C)[C@H]2OC(=O)OCC2c3ccccc3-c3ccccc32)[C@](C)(O)C[C@@H](C)N(C)C[C@H](C)[C@@H](O)[C@]1(C)O,0.25 µg/mL,0.25 µg/mL,0.5 µg/mL,2 µg/mL,0.06 µg/mL,1 µg/mL
CC[C@H]1OC(=O)[C@H](C)[C@@H](O[C@H]2C[C@@](C)(OC)C(N)[C@H](C)O2)[C@H](C)[C@@H](O[C@@H]2O[C@H](C)C[C@H](N(C)C)[C@H]2O)[C@](C)(O)C[C@@H](C)N(C)C[C@H](C)[C@@H](O)[C@]1(C)O (some centres undefined),0.25 µg/mL,0.13 µg/mL,1 µg/mL,4 µg/mL,0.03 µg/mL,2 µg/mL
CC[C@H]1OC(=O)[C@H](C)[C@@H](O[C@H]2C[C@@](C)(OC)[C@H](NC(C)=O)[C@H](C)O2)[C@H](C)[C@@H](O[C@@H]2O[C@H](C)C[C@H](N(C)C)[C@H]2OC(=O)OCC2c3ccccc3-c3ccccc32)[C@](C)(O)C[C@@H](C)N(C)C[C@H](C)[C@@H](O)[C@]1(C)O,1 µg/mL,4 µg/mL,4 µg/mL,8 µg/mL,0.5 µg/mL,16 µg/mL
CC[C@H]1OC(=O)[C@H](C)[C@@H](O[C@H]2C[C@@](C)(OC)[C@@H](N)[C@H](C)O2)[C@H](C)[C@@H](O[C@@H]2O[C@H](C)C[C@H](N(C)C)[C@H]2OC(=O)OCC2c3ccccc3-c3ccccc32)[C@](C)(O)C[C@@H](C)N(C)C[C@H](C)[C@@H](O)[C@]1(C)O,0.13 µg/mL,0.13 µg/mL,0.25 µg/mL,2 µg/mL,0.06 µg/mL,1 µg/mL
C=CCN1C[C@H](C)[C@@H](O)[C@](C)(O)[C@@H](CC)OC(=O)[C@H](C)[C@@H](O[C@H]2C[C@@](C)(OC)C(N)[C@H](C)O2)[C@H](C)[C@@H](O[C@@H]2O[C@H](C)C[C@H](N(C)C)[C@H]2O)[C@](C)(O)C[C@H]1C (some centres undefined),0.5 µg/mL,0.25 µg/mL,0.5 µg/mL,4 µg/mL,0.06 µg/mL,2 µg/mL
CC[C@H]1OC(=O)[C@H](C)[C@@H](O[C@H]2C[C@@](C)(OC)[C@H](n3cccc3)[C@H](C)O2)[C@H](C)[C@@H](O[C@@H]2O[C@H](C)C[C@H](N(C)C)[C@H]2OC(=O)OCC2c3ccccc3-c3ccccc32)[C@](C)(O)C[C@@H](C)N(C)C[C@H](C)[C@@H](O)[C@]1(C)O,4 µg/mL,8 µg/mL,16 µg/mL,4 µg/mL,0.25 µg/mL,8 µg/mL
CC[C@H]1OC(=O)[C@H](C)[C@@H](O[C@H]2C[C@@](C)(OC)[C@@H](NC(C)=O)[C@H](C)O2)[C@H](C)[C@@H](O[C@@H]2O[C@H](C)C[C@H](N(C)C)[C@H]2OC(=O)OCC2c3ccccc3-c3ccccc32)[C@](C)(O)C[C@@H](C)N(C)C[C@H](C)[C@@H](O)[C@]1(C)O,2 µg/mL,2 µg/mL,8 µg/mL,8 µg/mL,0.25 µg/mL,2 µg/mL
CC[C@H]1OC(=O)[C@H](C)[C@@H](O[C@H]2C[C@@](C)(OC)[C@@H](O)[C@H](C)O2)[C@H](C)[C@@H](O[C@@H]2O[C@H](C)C[C@H](N(C)C)[C@H]2O)[C@](C)(O)C[C@@H](C)CN(C)[C@H](C)[C@@H](O)[C@]1(C)O [AZITHROMYCIN],1 µg/mL,2 µg/mL,0.5 µg/mL,4 µg/mL,0.03 µg/mL,1 µg/mL
C=CCN1C[C@H](C)[C@@H](O)[C@](C)(O)[C@@H](CC)OC(=O)[C@H](C)[C@@H](O[C@H]2C[C@@](C)(OC)[C@H](N)[C@H](C)O2)[C@H](C)[C@@H](O[C@@H]2O[C@H](C)C[C@H](N(C)C)[C@H]2OC(=O)OCC2c3ccccc3-c3ccccc32)[C@](C)(O)C[C@H]1C,0.5 µg/mL,0.25 µg/mL,0.5 µg/mL,2 µg/mL,0.03 µg/mL,1 µg/mL
CC[C@H]1OC(=O)[C@H](C)[C@@H](O[C@H]2C[C@@](C)(OC)[C@@H](N(C)C)[C@H](C)O2)[C@H](C)[C@@H](O[C@@H]2O[C@H](C)C[C@H](N(C)C)[C@H]2OC(=O)OCC2c3ccccc3-c3ccccc32)[C@](C)(O)C[C@@H](C)N(C)C[C@H](C)[C@@H](O)[C@]1(C)O,1 µg/mL,2 µg/mL,2 µg/mL,8 µg/mL,0.5 µg/mL,8 µg/mL
CC[C@H]1OC(=O)[C@H](C)[C@@H](O[C@H]2C[C@@](C)(OC)[C@@H](O)[C@H](C)O2)[C@H](C)[C@@H](O[C@@H]2O[C@H](C)C[C@H](N(C)C)[C@H]2O)[C@](C)(O)C[C@@H](C)C(=O)[C@H](C)[C@@H](O)[C@]1(C)O [ERYTHROMYCIN],32 µg/mL,32 µg/mL,2 µg/mL,1 µg/mL,0.02 µg/mL,0.25 µg/mL
CC[C@H]1OC(=O)[C@H](C)[C@@H](O[C@H]2C[C@@](C)(OC)[C@H](N(C)C)[C@H](C)O2)[C@H](C)[C@@H](O[C@@H]2O[C@H](C)C[C@H](N(C)C)[C@H]2OC(=O)OCC2c3ccccc3-c3ccccc32)[C@](C)(O)C[C@@H](C)N(C)C[C@H](C)[C@@H](O)[C@]1(C)O,0.5 µg/mL,2 µg/mL,2 µg/mL,16 µg/mL,0.5 µg/mL,32 µg/mL
C=CCN1C[C@H](C)[C@@H](O)[C@](C)(O)[C@@H](CC)OC(=O)[C@H](C)[C@@H](O[C@H]2C[C@@](C)(OC)[C@@H](N)[C@H](C)O2)[C@H](C)[C@@H](O[C@@H]2O[C@H](C)C[C@H](N(C)C)[C@H]2OC(=O)OCC2c3ccccc3-c3ccccc32)[C@](C)(O)C[C@H]1C,0.25 µg/mL,0.13 µg/mL,1 µg/mL,4 µg/mL,0.03 µg/mL,1 µg/mL
CC[C@H]1OC(=O)[C@H](C)[C@@H](O[C@H]2C[C@@](C)(OC)[C@@H](n3cccc3)[C@H](C)O2)[C@H](C)[C@@H](O[C@@H]2O[C@H](C)C[C@H](N(C)C)[C@H]2OC(=O)OCC2c3ccccc3-c3ccccc32)[C@](C)(O)C[C@@H](C)N(C)C[C@H](C)[C@@H](O)[C@]1(C)O,4 µg/mL,4 µg/mL,4 µg/mL,2 µg/mL,0.13 µg/mL,4 µg/mL
CC[C@H]1OC(=O)[C@H](C)[C@@H](O[C@H]2C[C@@](C)(OC)[C@H](O)[C@H](C)O2)[C@H](C)[C@@H](O[C@@H]2O[C@H](C)C[C@H](N(C)C)[C@H]2O)[C@](C)(O)C[C@@H](C)N(C)C[C@H](C)[C@@H](O)[C@]1(C)O,1 µg/mL,4 µg/mL,1 µg/mL,1 µg/mL,0.06 µg/mL,0.5 µg/mL
CCCN1C[C@H](C)[C@@H](O)[C@](C)(O)[C@@H](CC)OC(=O)[C@H](C)[C@@H](O[C@H]2C[C@@](C)(OC)C(N)[C@H](C)O2)[C@H](C)[C@@H](O[C@@H]2O[C@H](C)C[C@H](N(C)C)[C@H]2O)[C@](C)(O)C[C@H]1C (some centres undefined),0.5 µg/mL,0.5 µg/mL,0.5 µg/mL,2 µg/mL,0.06 µg/mL,1 µg/mL
CC[C@H]1OC(=O)[C@H](C)[C@@H](O[C@H]2C[C@@](C)(OC)[C@H](N)[C@H](C)O2)[C@H](C)[C@@H](O[C@@H]2O[C@H](C)C[C@H](N(C)C)[C@H]2OC(=O)OCC2c3ccccc3-c3ccccc32)[C@](C)(O)C[C@@H](C)N(CCF)C[C@H](C)[C@@H](O)[C@]1(C)O,0.25 µg/mL,0.13 µg/mL,0.5 µg/mL,1 µg/mL,0.03 µg/mL,0.25 µg/mL
CC[C@H]1OC(=O)[C@H](C)[C@@H](O[C@H]2C[C@@](C)(OC)[C@@H](N)[C@H](C)O2)[C@H](C)[C@@H](O[C@@H]2O[C@H](C)C[C@H](N(C)C)[C@H]2OC(=O)OCC2c3ccccc3-c3ccccc32)[C@](C)(O)C[C@@H](C)N(CCF)C[C@H](C)[C@@H](O)[C@]1(C)O,0.25 µg/mL,0.13 µg/mL,1 µg/mL,2 µg/mL,0.03 µg/mL,0.5 µg/mL
CC[C@H]1OC(=O)[C@H](C)[C@@H](O[C@H]2C[C@@](C)(OC)[C@@H](O)[C@H](C)O2)[C@H](C)[C@@H](O[C@@H]2O[C@H](C)C[C@H](N(C)C)[C@H]2O)[C@](C)(O)C[C@@H](C)N(C)C[C@H](C)[C@@H](O)[C@]1(C)O [L-701677],1 µg/mL,1 µg/mL,1 µg/mL,2 µg/mL,0.03 µg/mL,0.5 µg/mL
